What all share (assay type): cell-based
Data set [1] relates to Saos-2 osteosarcoma cells expressing GFP-LC3. The experiment in a line: Autophagy response by punctate localization of GFP-LC3 to autophagic vacuoles, fluorescence microscopy. Particulars: for Stimulation of autophagy compared with amino acid and serum starved cells (FIG. 2G): 100 μM; for Stimulation of autophagy compared with amino acid and serum starved cells (FIG. 2G) / Enhancement of autophagy (GFP-LC3 at autophagic vacuoles): enriched (Fed) medium; for Activate Autophagy Response: Table 1; for Induction of autophagy: Table 2; for Localization of GFP-LC3 to autophagic vacuoles (FIG. 4): 100 mM Bcl-targeted compounds, fed Saos2 cells. On the procedure:
FIGS. 2A-2G. Activation of autophagy by Bcl-XL targeting compounds. The positions of C2 in Site 1 (FIG. 2A), C5 in Site 1 (FIG. 2B), and C8 in Site 2 (FIG. 2C) of Bcl-xl are shown by in silico molecular docking. Saos-2 osteosarcoma cells expressing GFP-LC3 were incubated in enriched (Fed) medium in the presence of C2 (FIG. 2D), C5 (FIG. 2E) and C8 (FIG. 2F) Bcl-targeted compounds. GFP-LC3 is found diffuse throughout the cytosol and nucleus when autophagy is suppressed. Ongoing autophagy can be visualized by the presence of GFP-LC3 at autophagic vacuoles (AVs) that appear as dots (arrows). […] In FIG. 2E, Saos-2 osteosarcoma cells expressing GFP-LC3 were incubated in enriched (Fed) medium in the absence and presence of Bcl-targeted compounds or in medium lacking amino acids and serum (Starved).
(§1) FIG. 4A-4F. Activation of autophagy by Bcl-targeted compounds. The localization of GFP-LC3 to autophagic vacuoles was enhanced by […] Bcl-targeted compounds in Saos-2 osteosarcoma cells. The autophagy response in fed Saos2 cells was measured in the absence and presence of anti-Bcl compounds by visualizing the punctate localization of GFP-LC3 (FIGS. 4A-4C) and RFP-GFP-LC3 (FIGS. 4D-4F) to autophagic vacuoles. In untreated fed cells, the GFP-LC3 is localized uniformly throughout the cell. […] Autophagy in cells expressing RFP-GFP-LC3 (FIGS. 4D-4F) was activated with compound B2-1. Structures containing RFP (red, FIG. 4D) and GFP (green, FIG. 4E) are autophagosomes (arrow), while RFP (red, FIG. 4D) structures are autolysosomes (arrowhead).
(§2) FIGS. 5A-5C. Characterization of proBeclin 1 compounds. Upon ranking 100 NCl compounds by in silico docking to Bcl-xl, the autophagy responses were evaluated in fed Saos-2 cells expressing GFP-LC3 (FIG. 5A). […] Cells were maintained in nutrient-rich medium in the absence and presence of Bcl-targeted compounds for 4 hr. The cells were then solubilized, Beclin 1 complex immunoprecipitated, and the Beclin 1 hound proteins identified by Western blotting (FIG. 5C). The IgG-LC is the immunoglobin light chain of the anti-Beclin 1 antibody that was used to immunoprecipitate the complex. The absence of Bcl-xl is indicative of an inhibition of Beclin 1 binding.
This was done in Saos-2 osteosarcoma cells stably expressing the autophagosome marker, GFP-LC3. In fed cells not undergoing autophagy GFP-LC3 is a soluble protein found throughout the cytosol. In amino acid and serum starved cells, autophagy is activated and GFP-LC3 becomes associated with autophagic vacuoles that can be visualize by fluorescence microscopy.
(§3) When autophagy is suppressed, GFP-LC3 distributes uniformly throughout the cellular cytoplasm (FIG. 4A). Autophagy response can be observed by visualizing the punctuate pattern of GFP-LC3 indicative of the presence of autophagic vacuoles. We can also use tandem-labeled LC3, RFP-GFP-LC3 to better assess the dynamics of the autophagy response by visualizing both autophagosomes and autolysosomes (FIG. 4D-4F). […] To further substantiate that the accumulation of GFP-LC3 structures is not due to a blockage of basal autophagy but the positive effects of the compounds on the autophagy response, the autophagy response is validated by quantitative protein turnover measures using radiolabeled amino acids (FIG. 5B). Finally, we determine whether the compound interferes with Beclin 1 binding to Bcl-xl (FIG. 5C) and Bcl-2 as we would suspect if the compound acts through the intended novel mechanism of action.

A further data set deals with NeuT cells. On the procedure:
(§4) FIGS. 3A-3E. Effects of Bcl-XL targeted small compounds on the autophagy response and cell survival in NeuT cells. The positions of C4 in Site 1 (FIG. 3A), and C9 in Site 2 (FIG. 3B) of Bcl-xl are shown by in silico molecular docking. NeuT (Her2-positive breast cancer cell line) cells expressing GFP-LC3 were incubated in enriched (Fed) medium in the presence of C4 (FIG. 3C) and C9 (FIG. 3D) Bcl-targeted compounds. GFP-LC3 is found on autophagic vacuole that appear as dots (arrows). In FIG. 3E, the survival of NeuT cells was quantified after 20h of treatment with 0.1-1000 μM of Site 1 (C2 and C4) and Site 2 (C7 and C9) compounds.
(§5) Cell survival is suppressed by Bcl2-targeted compounds: Next, we examined the effects of the Bcl-xl targeted compounds C2, C4, C7, and C9 on autophagy and cell death in Her2/Neu-positive NeuT breast carcinoma cells (FIGS. 3A-E).

The test system of a further data set is protein degradation. Description: Protein degradation by pulse-chase methods using 14C-valine. Particulars: for Rates of protein degradation (FIG. 5B): 14C-valine pulse-chase, compared to a control compound, n=6; for Stimulate Protein Degradation: Table 1; for Proteolysis, bar coding of FIG. 5A: black bar stimulated, striped bar inhibited. On the procedure: as §2, §3

A further data set has as its system Beclin 1/Bcl binding. The experiment in a line: Beclin 1/Bcl binding by immunoprecipitation with anti-Beclin 1 antibodies and Western blotting. Particulars: for Inhibit Beclin 1 Binding: Table 1; for Beclin 1 binding to Bcl-xl / Bcl proteins: nutrient-rich medium, 4 hr. From the text: FIGS. 5A-5C. Characterization of proBeclin 1 compounds. […] Cells were maintained in nutrient-rich medium in the absence and presence of Bcl-targeted compounds for 4 hr. The cells were then solubilized, Beclin 1 complex immunoprecipitated, and the Beclin 1 hound proteins identified by Western blotting (FIG. 5C). The IgG-LC is the immunoglobin light chain of the anti-Beclin 1 antibody that was used to immunoprecipitate the complex.
Autophagy response can be observed by visualizing the punctuate pattern of GFP-LC3 indicative of the presence of autophagic vacuoles. We can also use tandem-labeled LC3, RFP-GFP-LC3 to better assess the dynamics of the autophagy response by visualizing both autophagosomes and autolysosomes (FIG. 4D-4F). […] Finally, we determine whether the compound interferes with Beclin 1 binding to Bcl-xl (FIG. 5C) and Bcl-2 as we would suspect if the compound acts through the intended novel mechanism of action.

Data set [2] has as its system NeuT (Her2-positive breast cancer cell line) cells expressing GFP-LC3. The experiment in a line: Autophagy response by GFP-LC3 localization in NeuT cells. Particulars: enriched (Fed) medium. On the procedure:
as §4, §5

The test system of data set [3] is Saos2 cells expressing RFP-GFP-LC3. The experiment in a line: Autophagy flux with tandem-labeled RFP-GFP-LC3 (autophagosomes and autolysosomes). Particulars: fed Saos2 cells; listed as B2-1. On the procedure: as §1
When autophagy is suppressed, GFP-LC3 distributes uniformly throughout the cellular cytoplasm (FIG. 4A). Autophagy response can be observed by visualizing the punctuate pattern of GFP-LC3 indicative of the presence of autophagic vacuoles. […] To further substantiate that the accumulation of GFP-LC3 structures is not due to a blockage of basal autophagy but the positive effects of the compounds on the autophagy response, the autophagy response is validated by quantitative protein turnover measures using radiolabeled amino acids (FIG. 5B). […]

Consider five molecules from patent US20120141491A1, “METHODS AND COMPOSITIONS FOR THE TREATMENT OF CANCERS AND PATHOGENIC INFECTIONS” (priority 2009, published 2012).

“Also recorded” adds a separate entry of the source. Like-named read-outs stand apart in the source and are kept apart here.

Regarding `CCCCC(CC)CN1CN(CC(CC)CCCC)CC(C)(N)C1` (stereo not drawn) [NSC17764, 5-pyrimidinamine, 1,3-bis(2-ethylhexyl)hexhydro-5-methyl-], in data set [1] (listed as C5), the “Stimulation of autophagy compared with amino acid and serum starved cells (FIG. 2G)” value is “promote autophagy; also recorded: stimulated autophagy to levels seen in amino acid and serum starved cells”; the “Enhancement of autophagy (GFP-LC3 at autophagic vacuoles)” value (“Enhancement of autophagy” for short) is reported as “enhanced autophagy”. Further, in data set [1], the “Activate Autophagy Response” value is recorded as “Yes” and the Induction of autophagy entry is given as “Induces”. Besides, in data set [1] (listed as Bx-11), the “Enhancement of autophagy” value was “promotes an accumulation of GFP-LC3 structures; also recorded: promote the accumulation of autophagic vacuoles”. Besides, the “Induction of cell death” value in the data set on NeuT cells was “causes cell death”. In addition, the “Rates of protein degradation (FIG. 5B)” value in the data set with protein degradation (listed as Bx-11) is given as “suppressed protein degradation; also recorded: inhibit protein degradation”. Further, in the data set with protein degradation, the “Stimulate Protein Degradation” value is “No” and the “Proteolysis, bar coding of FIG. 5A” value is recorded as “inhibited”. Besides, in the data set with Beclin 1/Bcl binding, the “Inhibit Beclin 1 Binding” value is given as “No”.

In the case of `Nc1c(/N=N/c2ccc(S(=O)(=O)Nc3cnccn3)cc2)cc(S(=O)(=O)O)c2ccccc12` [NSC31331], in data set [1], the “Stimulation of autophagy compared with amino acid and serum starved cells (FIG. 2G)” value is given as “promote autophagy”; the “Localization of GFP-LC3 to autophagic vacuoles (FIG. 4)” value is recorded as “autophagic vacuoles are visualize as dots or ring-like structures”; the “Activate Autophagy Response” value is listed as “Yes”; the Induction of autophagy entry is “Induces autophagy”. For the same molecule, in data set [1], the “Enhancement of autophagy” value is reported as “stimulate autophagy”. The “Autophagy in NeuT cells” value in data set [2] was “induced autophagy”. In the data set with protein degradation, the “Rates of protein degradation (FIG. 5B)” value was “elevated”. Also, in the data set with Beclin 1/Bcl binding, the “Inhibit Beclin 1 Binding” value is given as “Yes” and the “Beclin 1 binding to Bcl-xl / Bcl proteins” value is on record as “interfere with Beclin 1 binding”.

With `O=C(C[N+]12CN3CN(CN(C3)C1)C2)c1ccc2ccccc2c1.[Br-]` [NSC36400], in data set [1], the “Stimulation of autophagy compared with amino acid and serum starved cells (FIG. 2G)” value is reported as “promote autophagy”; the “Activate Autophagy Response” value is on record as “Yes”; the Induction of autophagy result was “Induces autophagy”. In data set [2], the “Autophagy in NeuT cells” value is “enhanced autophagy”. Besides, in the data set with NeuT cells (Table 2, cells not given), the “Induction of cell death” value is recorded as “causes cell death”. For the same molecule, the “Inhibit Beclin 1 Binding” value in the data set with Beclin 1/Bcl binding is reported as “No”.

As for `CN(C)CCCN1CC2CCCCC2C1` (stereo not drawn) [NSC43537, 3-(1,3,3a,4,5,6,7,7a-octahydroisoindol-2-yl)-N,N-dimethylpropan-1-amine], in data set [1], the “Activate Autophagy Response” value is recorded as “Yes”, the Induction of autophagy result is “NSC 43537 Induces autophagy; not tested for the induction of cell death” and the “Enhancement of autophagy” value was “stimulate autophagy”. The “Autophagy / autophagy flux in cells expressing RFP-GFP-LC3” value in data set [3] is recorded as “activated; also recorded: autophagy flux is enhanced”. The “Rates of protein degradation (FIG. 5B)” value with protein degradation (listed as B2-1) is reported as “elevated; also recorded: stimulate”. In the data set with protein degradation, the “Stimulate Protein Degradation” value was “Yes” and the “Proteolysis, bar coding of FIG. 5A” value is “stimulated proteolysis”. Further, in the data set with Beclin 1/Bcl binding, the “Inhibit Beclin 1 Binding” value is “Yes” and the “Beclin 1 binding to Bcl-xl / Bcl proteins” value is given as “inhibiting Beclin 1 binding”.

As for `Nc1nc(S)c2ncn(C3CC(O)C(COP(=O)(O)O)O3)c2n1` (stereo not drawn) [NSC94668], in data set [1], the “Stimulation of autophagy compared with amino acid and serum starved cells (FIG. 2G)” value is recorded as “promote autophagy”; the “Localization of GFP-LC3 to autophagic vacuoles (FIG. 4)” value was “autophagic vacuoles are visualize as dots or ring-like structures”; the “Activate Autophagy Response” value is “Yes”; the Induction of autophagy result is reported as “Induces autophagy”. In data set [1], the “Enhancement of autophagy” value is recorded as “activate autophagy”. Further, the “Autophagy in NeuT cells” value in data set [2] was “enhanced autophagy”. Further, the “Induction of cell death” value with NeuT cells is given as “causes cell death”. In addition, in the data set with protein degradation (listed as Bx-22), the “Rates of protein degradation (FIG. 5B)” value was “elevated; also recorded: activate”. Moreover, the “Stimulate Protein Degradation” value with protein degradation was “Yes”. Moreover, the “Inhibit Beclin 1 Binding” value in the data set with Beclin 1/Bcl binding was “No”. Further, in the data set on Beclin 1/Bcl binding (listed as Bx-22), the “Beclin 1 binding to Bcl-xl / Bcl proteins” value is given as “did not; also recorded: do not appear to affect Beclin 1 binding”.
